# Where two headings read alike, the source gives them in different places.
# What was measured:
# [1] = tested on: FaDu cancer stem cells; assay: stemness gene expression versus chemo- and targeted therapeutics; type: cell-based; conditions: 24 hours, 2-acetylnaphtho[2,3-b]furan-4,9-dione 2 mM, sunitinib 20 mM, gemcitabine 2 mM, carboplatin 32 mM, FIGS. 4(A)-(D)
# Procedure: FIGS. 4(A)-(D) depict FaDu cancer stem cells that were treated for 24 hours with DMSO and: (i) 2-acetylnaphtho[2,3-b]furan-4,9-dione (2 mM) (FIG. 4(A)), (ii) sunitinib (20 mM) (FIG. 4(B)), (iii) gemcitabine (2 mM) (FIG. 4(C)), or (iv) carboplatin (32 mM) (FIG. 4(D)).
# [2] = tested on: p-Stat3 and β-catenin; assay: cancer stem cell markers in cancer xenograft models (immunofluorescence); type: in vivo, athymic nude mice; conditions: cancer xenograft tumor model, tumors harvested after first dosing; FIG. 6
# Procedure: The effects of 2-acetylnaphtho[2,3-b]furan-4,9-dione on cancer stem cell markers was also examined in cancer xenograft models with and without irinotecan. Human cancer cells were subcutaneously implanted into the right flank of 5-7 weeks old female athymic nude mice. When tumor size reached 200 mm^3, animals were treated with 2-acetylnaphtho[2,3-b]furan-4,9-dione, irinotecan, or a combination of 2-acetylnaphtho[2,3-b]furan-4,9-dione and irinotecan. Tumors were harvested after first dosing.
# The harvested tissues were fixed in 3.7% neutral buffered formaldehyde at 4° C. for overnight. The paraffin was embedded, cut to about 5 microns, and affixed onto positively charged slides. After being baked and de-paraffinized, the slides with tumor or control tissues were incubated in 10 mM Sodium Citrate (pH 6.0) for 10 minutes. After antigen retrieval, slides were probed with primary antibodies P-STAT3 (rabbit, Cell Signaling, 1:100), 13-Catenine (mouse, Santa Cruz, 1:400) at 4° C. overnight, and then Alexa Fluor fluorescent dyes-conjugated secondary antibodies (1:500, Invitrogen). After mounting with ProLong mounting medium with DAPI (Invitrogen), the slides were examined under a Zeiss fluorescence microscope with 20× objective, and analyzed with Zen software.
# [3] = tested on: mCRC; conditions: Single Agent, panitumumab value for K-Ras WT, cited from earlier work
compound,measurement,setting,value
Nc1ccn([C@@H]2O[C@H](CO)[C@@H](O)C2(F)F)c(=O)n1 [gemcitabine],"expression of self-renewal / CSC genes (β-Catenin, Nanog, Smo, Sox2)",[1],increased CSC gene expression in certain cases
"CCc1c2c(nc3ccc(OC(=O)N4CCC(N5CCCCC5)CC4)cc13)-c1cc3c(c(=O)n1C2)COC(=O)[C@]3(O)CC [irinotecan, reference compound]","expression of self-renewal / CSC genes (β-Catenin, Nanog, Smo, Sox2)",[1],increased CSC gene expression in certain cases
same,staining for stem cell markers (p-Stat3 and β-catenin),[2],enhanced staining
O=C1[O][Pt]2([NH][C@@H]3CCCC[C@H]3[NH]2)[O]C1=O [oxaliplatin],"expression of self-renewal / CSC genes (β-Catenin, Nanog, Smo, Sox2)",[1],increased CSC gene expression in certain cases
CNC(=O)c1cc(Oc2ccc(NC(=O)Nc3ccc(Cl)c(C(F)(F)F)c3)c(F)c2)ccn1 [regorafenib],"expression of self-renewal / CSC genes (β-Catenin, Nanog, Smo, Sox2)",[1],increased CSC gene expression in certain cases
panitumumab,Historical DCR (in Evaluable patients with mCRC),[3],30-40% (K-Ras WT)
same,Historical DCR (in Evaluable patients with mCRC),[3]; listed as panitumumab,30-40%
